# pIC50: −log10 of the molar value. Where “and” joins values, the source holds several entries; their conditions need not be identical. Equal entries are not always repeated.
# System: 521955-158-R2-J5-PDC complex spheroid viability
# Experiment: Anticancer human tumor 521955-158-R2-J5-PDC patient-derived pancreatic carcinoma cell line growth inhibition
# Settings: for viability, T/C: stronger effect = lower value
# Procedure, shortened: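 Complex spheroids of tumor cells with HUVEC and human MSCs, exposed to iadademstat combined with other agents. Each agent tested in half-log steps from near clinical Cmax (else 10 microM top), DMSO ≤0.25%.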
# [1] = curve of first compound, second compound 0.1 µM
# [2] = curve of first compound, second compound 0.316 µM
# [3] = curve of first compound, second compound 1 µM
# [4] = curve of first compound, second compound 3.16 µM
# [5] = curve of first compound, second compound 10 µM
# [6] = second compound 0.1 µM, first compound 0.0316 µM
# [7] = second compound 0.1 µM, first compound 0.1 µM
# [8] = second compound 0.1 µM, first compound 0.316 µM
# [9] = second compound 0.1 µM, first compound 1 µM
# [10] = second compound 0.316 µM, first compound 0.0316 µM
# [11] = second compound 0.316 µM, first compound 0.1 µM
# [12] = second compound 0.316 µM, first compound 0.316 µM
# [13] = second compound 0.316 µM, first compound 1 µM
# [14] = second compound 1 µM, first compound 0.0316 µM
# [15] = second compound 1 µM, first compound 0.1 µM
# [16] = second compound 1 µM, first compound 0.316 µM
# [17] = second compound 1 µM, first compound 1 µM
# [18] = second compound 3.16 µM, first compound 0.0316 µM
# [19] = second compound 3.16 µM, first compound 0.1 µM
# [20] = second compound 3.16 µM, first compound 0.316 µM
# [21] = second compound 3.16 µM, first compound 1 µM
# [22] = second compound 10 µM, first compound 0.0316 µM
# [23] = second compound 10 µM, first compound 0.1 µM
# [24] = second compound 10 µM, first compound 0.316 µM
# [25] = second compound 10 µM, first compound 1 µM
# [26] = second compound 0.1 µM, first compound 0.00316 µM
# [27] = second compound 0.1 µM, first compound 0.01 µM
# [28] = second compound 0.316 µM, first compound 0.00316 µM
# [29] = second compound 0.316 µM, first compound 0.01 µM
# [30] = second compound 1 µM, first compound 0.00316 µM
# [31] = second compound 1 µM, first compound 0.01 µM
# [32] = second compound 3.16 µM, first compound 0.00316 µM
# [33] = second compound 3.16 µM, first compound 0.01 µM
# [34] = second compound 10 µM, first compound 0.00316 µM
# [35] = second compound 10 µM, first compound 0.01 µM
# 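Also: spheroids exposed to agents for seven days.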
# 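For viability, T/C in this document: percent of DMSO vehicle control luminescence viability.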
compound,measurement,setting,value
Nc1ncn(C2CC(O)C(CO)S2)c(=O)n1 (stereo not drawn) + NC1CCC(NC2CC2c2ccccc2)CC1,pIC50,[1],< 6.52
same,pIC50,[2],< 6.52
same,pIC50,[3],< 6.52
same,pIC50,[4],< 6.52
same,pIC50,[5],< 6.52
same,"viability, T/C","second compound 0.1 µM, first compound 0.000949 µM",92.9%
same,"viability, T/C","second compound 0.1 µM, first compound 0.003 µM",91%
same,"viability, T/C","second compound 0.1 µM, first compound 0.00949 µM",88.3%
same,"viability, T/C","second compound 0.1 µM, first compound 0.03 µM",79.8%
same,"viability, T/C","second compound 0.1 µM, first compound 0.0949 µM",75.6%
same,"viability, T/C","second compound 0.1 µM, first compound 0.3 µM",57.3%
same,"viability, T/C","second compound 0.316 µM, first compound 0.000949 µM",95.9%
same,"viability, T/C","second compound 0.316 µM, first compound 0.003 µM",92.2%
same,"viability, T/C","second compound 0.316 µM, first compound 0.00949 µM",88.9%
same,"viability, T/C","second compound 0.316 µM, first compound 0.03 µM",84.6%
same,"viability, T/C","second compound 0.316 µM, first compound 0.0949 µM",70.3%
same,"viability, T/C","second compound 0.316 µM, first compound 0.3 µM",51.5%
same,"viability, T/C","second compound 1 µM, first compound 0.000949 µM",92.5%
same,"viability, T/C","second compound 1 µM, first compound 0.003 µM",87%
same,"viability, T/C","second compound 1 µM, first compound 0.00949 µM",93.7%
same,"viability, T/C","second compound 1 µM, first compound 0.03 µM",82.8%
same,"viability, T/C","second compound 1 µM, first compound 0.0949 µM",77.8%
same,"viability, T/C","second compound 1 µM, first compound 0.3 µM",56.5%
same,"viability, T/C","second compound 3.16 µM, first compound 0.000949 µM",103%
same,"viability, T/C","second compound 3.16 µM, first compound 0.003 µM",110%
same,"viability, T/C","second compound 3.16 µM, first compound 0.00949 µM",91.7%
same,"viability, T/C","second compound 3.16 µM, first compound 0.03 µM",88.1%
same,"viability, T/C","second compound 3.16 µM, first compound 0.0949 µM",76.6%
same,"viability, T/C","second compound 3.16 µM, first compound 0.3 µM",52.7%
same,"viability, T/C","second compound 10 µM, first compound 0.000949 µM",93.6%
same,"viability, T/C","second compound 10 µM, first compound 0.003 µM",94.9%
same,"viability, T/C","second compound 10 µM, first compound 0.00949 µM",98%
same,"viability, T/C","second compound 10 µM, first compound 0.03 µM",82.8%
same,"viability, T/C","second compound 10 µM, first compound 0.0949 µM",77.4%
same,"viability, T/C","second compound 10 µM, first compound 0.3 µM",54.9%
CC(C)CC(NC(=O)CNC(=O)c1cc(Cl)ccc1Cl)B1OC(=O)CC(CC(=O)O)(C(=O)O)O1 (stereo not drawn),"viability, T/C",compound 0.000316 µM,107% and 105%
same,"viability, T/C",compound 0.001 µM,106%
same,"viability, T/C",compound 0.00316 µM,82.2% and 97.3%
same,"viability, T/C",compound 0.01 µM,7.33% and 16.1%
same,"viability, T/C",compound 0.0316 µM,0.46% and 1.77%
same,"viability, T/C",compound 0.1 µM,0.41% and 0.54%
same,pIC50,curve of compound,8.28 and 8.21
CC(C)c1c(-c2ccccc2)nc2c(C#N)c[nH]n2c1=O,"viability, T/C",compound 0.0316 µM,104% and 98.1%
same,"viability, T/C",compound 0.1 µM,108% and 97.9%
same,"viability, T/C",compound 0.316 µM,105% and 104%
same,"viability, T/C",compound 1 µM,101% and 86.4%
same,"viability, T/C",compound 3.16 µM,102% and 94.2%
same,"viability, T/C",compound 10 µM,86.5% and 85.9%
same,pIC50,curve of compound,< 5.00
CC1COCCN1c1cc(-c2ccnn2C)c2ccnc(-c3ccn[nH]3)c2n1 (stereo not drawn),"viability, T/C",compound 0.00316 µM,10.8% and 14.6%
same,"viability, T/C",compound 0.01 µM,10.8% and 12.3%
same,"viability, T/C",compound 0.0316 µM,11.1% and 13%
same,"viability, T/C",compound 0.1 µM,18.1% and 21.3%
same,"viability, T/C",compound 0.316 µM,21.6% and 24.3%
same,"viability, T/C",compound 1 µM,12.5% and 17.1%
same,pIC50,curve of compound,> 8.50
COc1ccc([C@@H](O)c2cc(-c3ncnc4cc(N5CCOCC5)ccc34)c(F)cc2Cl)nn1 + NC1CC1c1ccc(-c2cccc(O)c2)cc1,pIC50,[1],5.91
same,pIC50,[2],5.79
same,pIC50,[3],5.88
same,pIC50,[4],5.92
same,pIC50,[5],6.08
same,"viability, T/C",[6],72.7%
same,"viability, T/C",[7],78.3%
same,"viability, T/C",[8],73.6%
same,"viability, T/C",[9],49.9%
same,"viability, T/C","second compound 0.1 µM, first compound 3.16 µM",36.5%
same,"viability, T/C","second compound 0.1 µM, first compound 10 µM",21.6%
same,"viability, T/C",[10],74.3%
same,"viability, T/C",[11],69.5%
same,"viability, T/C",[12],68.2%
same,"viability, T/C",[13],57.6%
same,"viability, T/C","second compound 0.316 µM, first compound 3.16 µM",39.9%
same,"viability, T/C","second compound 0.316 µM, first compound 10 µM",20.6%
same,"viability, T/C",[14],76.1%
same,"viability, T/C",[15],72%
same,"viability, T/C",[16],63.1%
same,"viability, T/C",[17],55.5%
same,"viability, T/C","second compound 1 µM, first compound 3.16 µM",37.3%
same,"viability, T/C","second compound 1 µM, first compound 10 µM",20.5%
same,"viability, T/C",[18],74.5%
same,"viability, T/C",[19],78.7%
same,"viability, T/C",[20],65.4%
same,"viability, T/C",[21],53.1%
same,"viability, T/C","second compound 3.16 µM, first compound 3.16 µM",35.2%
same,"viability, T/C","second compound 3.16 µM, first compound 10 µM",21.7%
same,"viability, T/C",[22],75.3%
same,"viability, T/C",[23],70.6%
same,"viability, T/C",[24],59.8%
same,"viability, T/C",[25],49.9%
same,"viability, T/C","second compound 10 µM, first compound 3.16 µM",31.8%
same,"viability, T/C","second compound 10 µM, first compound 10 µM",21.6%
CCN(c1cc(-c2ccc(CN3CCOCC3)cc2)cc(C(=O)NCc2c(C)cc(C)[nH]c2=O)c1C)C1CCOCC1,"viability, T/C",compound 0.00949 µM,102% and 106%
same,"viability, T/C",compound 0.03 µM,100% and 106%
same,"viability, T/C",compound 0.0949 µM,98.5% and 102%
same,"viability, T/C",compound 0.3 µM,83.5% and 102%
same,"viability, T/C",compound 0.949 µM,73.1% and 87.9%
same,"viability, T/C",compound 3 µM,46.6% and 75%
same,pIC50,curve of compound,5.59 and < 5.52
CC[C@@]1(O)C(=O)OCc2c1cc1n(c2=O)Cc2cc3c(CN(C)C)c(O)ccc3nc2-1 + NC1CC1c1ccc(-c2cccc(O)c2)cc1,pIC50,[1],8.22
same,pIC50,[2],8.18
same,pIC50,[3],8.21
same,pIC50,[4],8.21
same,pIC50,[5],8.20
same,"viability, T/C","second compound 0.1 µM, first compound 0.000316 µM",97.3%
same,"viability, T/C","second compound 0.1 µM, first compound 0.001 µM",106%
same,"viability, T/C",[26],77.3%
same,"viability, T/C",[27],28.3%
same,"viability, T/C",[6],15.6%
same,"viability, T/C",[7],11.7%
same,"viability, T/C","second compound 0.316 µM, first compound 0.000316 µM",94.8%
same,"viability, T/C","second compound 0.316 µM, first compound 0.001 µM",94.9%
same,"viability, T/C",[28],80.5%
same,"viability, T/C",[29],33.1%
same,"viability, T/C",[10],14.6%
same,"viability, T/C",[11],13.1%
same,"viability, T/C","second compound 1 µM, first compound 0.000316 µM",80.2%
same,"viability, T/C","second compound 1 µM, first compound 0.001 µM",93.3%
same,"viability, T/C",[30],78.2%
same,"viability, T/C",[31],29.1%
same,"viability, T/C",[14],16.4%
same,"viability, T/C",[15],12.7%
same,"viability, T/C","second compound 3.16 µM, first compound 0.000316 µM",83%
same,"viability, T/C","second compound 3.16 µM, first compound 0.001 µM",86.8%
same,"viability, T/C",[32],71.9%
same,"viability, T/C",[33],33.8%
same,"viability, T/C",[18],18.5%
same,"viability, T/C",[19],12.2%
same,"viability, T/C","second compound 10 µM, first compound 0.000316 µM",103%
same,"viability, T/C","second compound 10 µM, first compound 0.001 µM",92.3%
same,"viability, T/C",[34],68.7%
same,"viability, T/C",[35],37.7%
same,"viability, T/C",[22],21.1%
same,"viability, T/C",[23],19.7%
Nc1ncn(C2CC(O)C(CO)O2)c(=O)n1 (stereo not drawn) + NC1CCC(NC2CC2c2ccccc2)CC1,pIC50,[1],< 6.00
same,pIC50,[2],< 6.00
same,pIC50,[3],< 6.00
same,pIC50,[4],6.03
same,pIC50,[5],< 6.00
same,"viability, T/C",[26],101%
same,"viability, T/C",[27],108%
same,"viability, T/C",[6],93.6%
same,"viability, T/C",[7],79.7%
same,"viability, T/C",[8],69.6%
same,"viability, T/C",[9],64.2%
same,"viability, T/C",[28],97.4%
same,"viability, T/C",[29],96%
same,"viability, T/C",[10],85.6%
same,"viability, T/C",[11],83.4%
same,"viability, T/C",[12],63%
same,"viability, T/C",[13],55.3%
same,"viability, T/C",[30],99.3%
same,"viability, T/C",[31],90.1%
same,"viability, T/C",[14],85.3%
same,"viability, T/C",[15],74.4%
same,"viability, T/C",[16],60.5%
same,"viability, T/C",[17],56.3%
same,"viability, T/C",[32],96.4%
same,"viability, T/C",[33],95.4%
same,"viability, T/C",[18],93.1%
same,"viability, T/C",[19],75.4%
same,"viability, T/C",[20],59.1%
same,"viability, T/C",[21],49%
same,"viability, T/C",[34],95.3%
same,"viability, T/C",[35],91%
same,"viability, T/C",[22],92.8%
same,"viability, T/C",[23],76.5%
same,"viability, T/C",[24],62.5%
same,"viability, T/C",[25],51.6%
